In article PMC10535741, “Styrylpyridinium Derivatives for Fluorescent Cell Imaging” (Pharmaceuticals, 2023):
Where two headings read alike, the source gives them in different places.

How the values were obtained:
[1] = UV/Vis absorption spectra in DMSO; assay type: physicochemical; settings: 0.33 mM for 6a,b,d,f,g, 5 mM for 6c,e
Protocol: The resonance structures of compounds 6d,e (Figure 2a) show a possibly intramolecular charge transfer between the julolidine moiety and the pyridinium unit. The normalised fluorescence spectra of the tested compounds 6a–e and 7a,b in DMSO solution (Figure 2c) and the fluorescence spectra of compound 6e in various media (Figure 2d) were measured using a spectrophotometer multiplate reader (Infinite M1000). The UV/Vis spectra in DMSO solution of compounds 6a–g (Figure 2b) were reordered with a UV/Vis spectrophotometer, and the fluorescence spectra of compound 6e in EtOH–glycerol mixtures (Figure 2e) were collected with a Spectrofluorometer FS5.
The spectral properties (absorption and fluorescence maximum in DMSO solution) of compounds 6a–e and 7a,b, UV spectral data (extinction coefficient (log ε) and absorption maximum), values of Stokes’ shift, and fluorescence quantum yield are presented in Table 3.

[2] = system: MH-22A (mouse hepatocarcinoma); assay: MTT cytotoxicity assay, MH-22A; assay type: cell-based; settings: for IC50: Mus musculus, read-out: IC50 (µg/mL) MH-22A
Protocol: (§1) The evaluation of the in vitro cytotoxicity (IC50, half maximal inhibitory concentration) of the abovementioned compounds and their structural derivatives was assessed using the standard colorimetric 3-(4,5-dimethylthiazol-2-yl)-2,5-diphenyltetrazolium bromide (MTT) assay on two monolayer tumour cell lines, namely HT-1080 (human connective tissue fibrosarcoma) and MH-22A (mouse hepatocarcinoma). Additionally, the impact of the compound on non-cancerous “normal” cells—mouse fibroblasts (NIH3T3)—was estimated in order to measure the basal toxicity (LD50, median lethal dose). The obtained results were used for investigation of the structure–activity relationships and exploration of the effect of substituents on cellular response and toxicity. The estimated LD50 gives information regarding the compound properties and could potentially be used to select promising compounds by providing a starting dose for in vivo experiments.
(§2) The HT-1080 (human connective tissue fibrosarcoma, ATCC® CCL-121™), MH-22A (mouse hepatocarcinoma, ECACC Cat. No. 96121721), A-549 (human lung carcinoma, ATCC® CCL-185™), NIH3T3 (Swiss Albino mouse embryo fibroblast, ECACC Cat. No. 93061524), Hek293 (human embryonic kidney, ATCC® CRL-1573™), BHK-21 (Syrian hamster kidney, ATCC® CCL-10™), A-431 (human epidermoid carcinoma, ATCC® CRL-1555™), Saos-2 (human osteosarcoma, ATCC® HTB-85™), HeLa (human epitheloid cervix carcinoma, ATCC® CCL-2™), U937 (human myeloid leukaemia, ATCC® CRL-1593.2™), C6 (rat glioma, ATCC® CCL-107™), and B16-F10 (murine melanoma, ATCC® CRL-6475™) cell lines were obtained from the American Type Culture Collection (ATCC) and European Collection of Authenticated Cell Cultures (ECACC).
(§3) HT-1080, MH-22A, A-549, NIH3T3, BHK-21, A-431, HeLa, and B16-F10 cells were cultured in Dulbecco’s Modified Eagle’s Medium (DMEM) with 2 mM glutamine and 10% foetal bovine serum (FBS). Hek293 cells were cultured in Eagle’s Minimum Essential Medium with 10% foetal bovine serum. U937 cells were cultured in RPMI-1640 Medium with 2 mM glutamine and 10% foetal bovine serum. C6 cells were cultured in Ham’s F12 Medium with 2 mM glutamine and 10% foetal bovine serum. Saos-2 cells were cultured in McCoy’s 5a Medium with 2 mM glutamine and 10% foetal bovine serum. The cells were incubated at 37 °C with 5% CO2, 95% air, and complete humidity. Once ~90% confluence was reached, they were detached using 0.05% trypsin/EDTA and counted. The cells were plated at optimally determined densities for the logarithmic phase of growth. These cells were then suspended at a concentration of 4000 cells/well for HT-1080, MH-22A, A-549, NIH3T3, BHK-21, A-431, HeLa, B16-F10, Hek293, and Saos-2 cells and a concentration of 9000 cells/well for U937, C6, Hek293, and GM08402 cells and added onto a 96-well plate. For background absorption, some wells remained cell free, i.e., as a blank control. Cells were incubated for 72 h at 37 °C and 5% CO2 where they were exposed to a media containing serial dilutions of the investigated compounds (n = 3). Cell viability was measured using the 3-(4,5-dimethylthiazol-2-yl)-2,5-diphenyl-tetrazolium bromide (MTT) assay. In brief, after incubating with compounds, the culture medium was removed and fresh medium with 0.2 mg/mL MTT was added to each well of the plate. After incubation (3 h, 37 °C, 5% CO2), the medium with MTT solution was removed and replaced with 200 µL DMSO and 25 µL Sorenson’s glycine buffer (glycine 0.1 M, NaCl 0.1 M, pH: 10.5 with 0.1 M NaOH). The plate was shaken for 15 min at room temperature and the optical density (OD) of the wells was determined using a multichannel spectrophotometer (Thermo Scientific Multiskan EX) at 540 nm. The quantity of the control cells was taken in calculations as 100%. The IC50 value was calculated using the program Graph Pad Prism® 3.0.

in vitro = assay type: cell-based, human; settings: human, MTT, 72 h
From the text: For selected compounds, 6a–6f, we performed a determination of the cytotoxicity in a wider variety of cancer and non-cancerous cell lines (see Table S2, Supplementary Materials) in order to learn the characteristic features of selectivity or the similarity of biological properties.
as §2, §3
The HT-1080 (human connective tissue fibrosarcoma, ATCC® CCL-121™), MH-22A (mouse hepatocarcinoma, ECACC Cat.No. 96121721), A-549 (human lung carcinoma, ATCC® CCL-185™), NIH 3T3 (mouse Swiss Albino embryo fibroblast, ECACC Cat.No. 93061524), Hek293 (human embryonic kidney, ATCC® CRL-1573™), BHK-21 (hamster Syrian kidney, ATCC® CCL-10™), A-431 (human epidermoid carcinoma, ATCC® CRL-1555™), Saos-2 (human oste osarcoma, ATCC® HTB-85™) HeLa (human epitheloid cervix carcinoma, ATCC® CCL-2™), U937 (human myeloid leukaemia, ATCC® CRL-1593.2™), C6 (rat glioma, ATCC® CCL-107™), B16-F10 (murine melanoma, ATCC® CRL-6475™) cell lines were obtained from American Type Culture Collection (ATCC) and European Collection of Authenticated Cell Cultures […]
Table S2. […]

[3] = system: HT-1080 (human connective tissue fibrosarcoma); assay: MTT cytotoxicity assay, HT-1080; assay type: cell-based; settings: for IC50: Homo sapiens, read-out: IC50 (µg/mL) HT-1080
Protocol: as §1, §2, §3

[4] = cancer cell line, read-out: Cytotoxicity IC50 A-431
[5] = cancer cell line, read-out: Cytotoxicity IC50 A-549
[6] = cancer cell line, read-out: Cytotoxicity IC50 HeLa
[7] = cancer cell line, read-out: Cytotoxicity IC50 Saos-2
[8] = cancer cell line, read-out: Cytotoxicity IC50 U937
[9] = non-cancerous cell line, read-out: Cytotoxicity IC50 Hek-293

## CCCCCCCCCCCC[n+]1ccc(C=Cc2cc(OC)c(OC)c(OC)c2)cc1.[Br-] [Compound 6a, 4-(3,4,5-trimethoxystyryl)-N-dodecylpyridinium bromide]
[1]
  abs. max., λ, nm: 384 nm
  log ε: 5.46
[2]; 6a versus 6b
  times more toxic than 6b in MH-22A: 2.4 times
[2]; 72 h treatment, MTT
  IC50: 0.45 ± 0.08 µg/mL
[2]; ratio of IC50 values
  times lower cytotoxicity of 6a compared with 6d, MH-22A: 8.5 times
In vitro; [4]
  IC50 at 72 h: 0.87 µg/mL
In vitro; [5]
  IC50 at 72 h: 0.87 µg/mL
In vitro; [6]
  IC50 at 72 h: 0.59 µg/mL
In vitro; [7]
  IC50 at 72 h: 0.37 µg/mL
In vitro; [8]
  IC50 at 72 h: 1.01 µg/mL
In vitro; [9]
  IC50 at 72 h: 0.22 µg/mL
[3]; HT-1080, 72 h treatment, MTT
  IC50: 0.22 ± 0.06 µg/mL

## CCCCCCCCCCCCCCCC[n+]1ccc(C=Cc2cc(OC)c(OC)c(OC)c2)cc1.[Br-] [Compound 6b]
[1]
  abs. max., λ, nm: 385 nm
  log ε: 5.23
[2]; 72 h treatment, MTT
  IC50 (µg/mL) MH-22A: 1.08 ± 0.06 µg/mL
[3]; 72 h treatment, MTT
  IC50 (µg/mL) HT-1080: 0.18 ± 0.02 µg/mL

## CCCCCCCCCCCCCCCC[n+]1ccc(C=CC=Cc2ccc(OC)cc2)cc1.[Br-] [Compound 6c, 1-hexadecyl-4-(4-(4-methoxyphenyl)buta-1,3-dien-1-yl)pyridin-1-ium bromide]
[1]
  abs. max., λ, nm: 408 nm
  log ε: 4.26
[2]; 72 h treatment, MTT
  IC50: 0.13 ± 0.03 µg/mL
[3]; HT-1080, 72 h treatment, MTT
  IC50: 0.2 ± 0.04 µg/mL

## CCCCCCCCCCCC[n+]1ccc(C=Cc2cc3c4c(c2)CCCN4CCC3)cc1.[Br-] [Compound 6d, 1-dodecyl-4-(2-(2,3,6,7-tetrahydro-1H,5H-pyrido[3,2,1-ij]quinolin-9-yl)vinyl)pyridin-1-ium bromide]
[2]; 6d versus 7a
  times higher cytotoxicity towards MH-22A than compound 7a: 80 times
[2]; 72 h treatment, MTT
  IC50: 0.05 ± 0.003 µg/mL
In vitro; [4]
  IC50 at 72 h: 0.098 µg/mL
In vitro; [5]
  IC50 at 72 h: 0.055 µg/mL
In vitro; [6]
  IC50 at 72 h: 0.055 µg/mL
In vitro; [7]
  IC50 at 72 h: 0.79 µg/mL
In vitro; [8]
  IC50 at 72 h: 0.044 µg/mL
In vitro; [9]
  IC50 at 72 h: 0.012 µg/mL
[3]; HT-1080, 72 h treatment, MTT
  IC50: 1.4 ± 0.3 µg/mL

## CCCCCCCCCCCCCCCC[n+]1ccc(C=CC=Cc2cc3c4c(c2)CCCN4CCC3)cc1.[Br-] [Compound 6e, 1-hexadecyl-4-(4-(2,3,6,7-tetrahydro-1H,5H-pyrido[3,2,1-ij]quinolin-9-yl)buta-1,3-dien-1-yl)pyridin-1-ium bromide]
[1]
  abs. max., λ, nm: 520 nm
  log ε: 4.02
[2]; 72 h treatment, MTT
  IC50: 0.4 ± 0.06 µg/mL
[2]; selectivity MH-22A versus Hek-293
  times more toxic to MH-22A than against non-cancerous Hek-293: 3.75 times
[2]; selectivity MH-22A versus NIH3T3
  times more cytotoxic to MH-22A than against non-cancerous NIH3T3: eight
In vitro; [4]
  IC50 at 72 h: 1.9 µg/mL
In vitro; [5]
  IC50 at 72 h: 3 µg/mL
In vitro; [6]
  IC50 at 72 h: 1.3 µg/mL
In vitro; [7]
  IC50 at 72 h: 3.6 µg/mL
In vitro; [8]
  IC50 at 72 h: 2.4 µg/mL
In vitro; [9]
  IC50 at 72 h: 1.5 µg/mL
[3]; 6e versus 6d
  times higher cytotoxicity towards HT-1080 than 6d: 1.4 times
[3]; HT-1080, 72 h treatment, MTT
  IC50: 1 ± 0.03 µg/mL

## C(=C\c1cc2c3c(c1)CCCN3CCC2)/c1cc[n+](CCC[n+]2ccc(/C=C/c3cc4c5c(c3)CCCN5CCC4)cc2)cc1 [Compound 7a]
[2]; 72 h
  IC50: 4 ± 0.3 µg/mL
[3]; HT-1080, 72 h
  IC50: 2 ± 0.3 µg/mL

## C(C=Cc1cc2c3c(c1)CCCN3CCC2)=Cc1cc[n+](CCC[n+]2ccc(C=CC=Cc3cc4c5c(c3)CCCN5CCC4)cc2)cc1.[Br-].[Br-] [Compound 7b, 1,1′-(propane-1,3-diyl)bis(4-(4-(2,3,6,7-tetrahydro-1H,5H-pyrido[3,2,1-ij]quinolin-9-yl)buta-1,3-dien-1-yl)pyridin-1-ium) dibromide]
[2]; 72 h treatment, MTT
  IC50: 5 ± 0.6 µg/mL
[3]; HT-1080, 72 h treatment, MTT
  IC50: 6 ± 0.2 µg/mL
